Test results taken from ChEMBL document CHEMBL5236669, “Identification of pyrimidinyl piperazines as non-iminosugar glucocerebrosidase (GCase) pharmacological chaperones” (Bioorg Med Chem Lett, 2023).
≈ marks a conversion by molar mass, not a printed value.

Columns and labels:
[1] = target: Lysosomal acid glucosylceramidase (Homo sapiens, UniProt P04062, N409S); assay: Chaperone activity at GCase N370S GBA mutant in patient derived fibroblast cell using 4-methylumbelliferyl-beta-D-glucopyranoside as substrate assessed as substrate cleavage by measuring concentration required for maximal response incubated for 5 days by fluorescence based assay
Lysosomal acid glucosylceramidase, sequence (P04062 40-536 N409S limits assumed): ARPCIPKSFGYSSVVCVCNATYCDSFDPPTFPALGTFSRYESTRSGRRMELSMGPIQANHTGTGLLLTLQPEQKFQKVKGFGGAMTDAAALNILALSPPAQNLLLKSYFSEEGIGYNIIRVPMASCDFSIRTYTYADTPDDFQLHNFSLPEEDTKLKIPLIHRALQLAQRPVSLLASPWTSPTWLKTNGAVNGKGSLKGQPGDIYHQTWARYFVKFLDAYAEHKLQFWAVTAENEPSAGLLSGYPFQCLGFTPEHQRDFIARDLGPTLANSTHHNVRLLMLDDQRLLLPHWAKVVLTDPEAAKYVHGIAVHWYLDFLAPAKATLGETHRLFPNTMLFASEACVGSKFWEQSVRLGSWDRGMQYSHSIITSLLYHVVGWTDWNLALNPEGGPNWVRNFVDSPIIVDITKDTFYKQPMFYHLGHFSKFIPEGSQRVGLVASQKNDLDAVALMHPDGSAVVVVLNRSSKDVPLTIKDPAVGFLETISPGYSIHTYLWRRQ

[2] = Solubility of the compound in PBS; type: physicochemical
LLC-PK1 = assay: Corrected flux ratio of permeability in pig LLC-PK1 cells overexpressing MDR1 to pig LLC-PK1 cells; type: ADME, cell-based, Sus scrofa
[3] = Metabolic stability in human liver microsomes assessed as intrinsic clearance; type: ADME, Microsome; details: read-out: CLH

Row | SMILES | EC50 [1] [nM] | also measured
1 | Cc1cc(N2CCN(C(=O)c3ccncc3)CC2)nc(N2CCCC2)n1 | 6800 | –
2 | Cc1ccccc1C(=O)N1CCN(c2nc(N3CCCC3)nc3c2COC3)CC1 | 540 | –
3 | Cc1cc(N2CCN(C(=O)c3cnccn3)CC2)nc(N2CCCC2)n1 | 5300 | –
4 | Cc1cc(N2CCN(C(=O)c3ccc(C(C)(C)C)cc3)CC2)nc(N2CCCC2)n1 | – | solubility [2]: 68 µM (≈ 27.7 µg/mL); CLint scaled [3]: 0.172 mL/min/kg
5 | CC(=O)N1CCN(c2cc(C)nc(N3CCCC3)n2)CC1 | 7100 | –
6 | Cc1cc(N2CCN(C(=O)c3ccc(Cl)cc3)CC2)nc(N2CCCC2)n1 | 40 | –
7 | Cc1cc(N2CCN(C(=O)Cc3ccccc3)CC2)nc(N2CCCC2)n1 | 460 | –
8 | Cc1ccc(C(=O)N2CCN(c3cc(C)nc(N4CCCC4)n3)CC2)cc1 | 70 | –
9 | CC(C)(C)c1ccc(C(=O)N2CCN(c3nc(N4CCCC4)nc4c3CCC4)CC2)cc1 | – | solubility [2]: 2 µM (≈ 0.867 µg/mL)
10 | Cc1ccccc1C(=O)N1CCN(c2nc(N3CCCC3)nc3ccccc23)CC1 | 79 | solubility [2]: 85 µM (≈ 34.1 µg/mL); Ratio (LLC-PK1): 2.19; CLint scaled [3]: 0.789 mL/min/kg
11 | CC(C)(C)c1ccc(C(=O)N2CCN(c3nc(N4CCCC4)nc4c3COC4)CC2)cc1 | 150 | –
12 | Cc1cc(N2CC3CN(C(=O)c4ccccc4C)CC3C2)nc(N2CCCC2)n1 (configuration not stated) | 660 | –
13 | Cc1ccccc1C(=O)N1CCN(c2nc(N3CCCC3)nc3c2CCC3)CC1 | 30 | –
14 | Cc1ccccc1C(=O)N1CCN(c2nc(N3CCCC3)nc3c2COCC3)CC1 | 410 | –
15 | Cc1cc(N2CCN(C(=O)C3CCCCC3)CC2)nc(N2CCCC2)n1 | 360 | –
16 | Cc1cccc(C(=O)N2CCN(c3cc(C)nc(N4CCCC4)n3)CC2)c1 | 130 | –
17 | Cc1cc(N2CCN(C(=O)c3ccc(-c4ccccc4)cc3)CC2)nc(N2CCCC2)n1 | 58 | –

Further lines, with some results ahead:

Row | EC50 [1] [nM] | SMILES | also measured
18 | 90 | Cc1cc(N2CCN(C(=O)c3cc(-c4ccccc4)nc4c3cnn4C(C)C)CC2)nc(C(C)C)n1 | solubility [2]: 3 µM (≈ 1.45 µg/mL); Ratio (LLC-PK1): 1.26; CLint scaled [3]: 0.341 mL/min/kg
19 | 150 | Cc1cc(N2CCN(C(=O)c3ccccc3C)CC2)nc(C(C)C)n1 | –
20 | 29 | Cc1cc(N2CCN(C(=O)c3ccccc3C)CC2)nc(N2CCCCCC2)n1 | –
21 | 680 | Cc1ccccc1C(=O)N1CCN(c2ccnc(N3CCCC3)n2)CC1 | –
22 | 440 | Cc1cc(N2CCN(C(=O)c3ccccc3C)CC2)nc(N2CCC2)n1 | –
23 | 75 | Cc1cc(N2CCN(C(=O)c3ccccc3C)CC2)nc(N2CCCC2)n1 | solubility [2]: 94 µM (≈ 34.4 µg/mL); Ratio (LLC-PK1): 1.38; CLint scaled [3]: 0.104 mL/min/kg
24 | 630 | Cc1cc(N2CCN(C(=O)c3ccccc3C)CC2)nc(N(C)C)n1 | –
25 | 5200 | Cc1cc(N2CCN(C(=O)c3ccccc3C)CC2)nc(N2CCOCC2)n1 | –
26 | 63 | Cc1cc(N2CCN(C(=O)c3ccccc3Cl)CC2)nc(N2CCCC2)n1 | –
27 | 170 | Cc1cc(N2CCN(C(=O)c3ccccc3C)CC2)nc(N2CCCCC2)n1 | –
28 | 2100 | Cc1cc(N2CC3(CN(C(=O)c4ccccc4C)C3)C2)nc(N2CCCC2)n1 | –
29 | 1400 | Cc1cc(N2CCN(C(=O)c3ccccc3C)CC2)nc(N2CCC(F)(F)C2)n1 | –
30 | > 25000 | Cc1ccccc1C(=O)N1CCN(c2cc(C(F)(F)F)nc(N3CCCC3)n2)CC1 | –
31 | 170 | Cc1cc(N2CCN(C(=O)c3ccccc3F)CC2)nc(N2CCCC2)n1 | –
32 | 100 | Cc1cc(N2CCN(C(=O)c3ccccc3C(F)(F)F)CC2)nc(N2CCCC2)n1 | –
33 | 120 | Cc1ccccc1C(=O)N1CCN(c2nc(N3CCCC3)ncc2C)CC1 | –
34 | 220 | Cc1ccccc1C(=O)N1CCN(c2cc(CO)nc(N3CCCC3)n2)CC1 | –
35 | 1800 | Cc1cc(N2CCCN(C(=O)c3ccccc3C)CC2)nc(N2CCCC2)n1 | –
36 | 250 | Cc1ccccc1C(=O)N1CCN(c2nc(N3CCCC3)nc(C)c2C)CC1 | –
37 | 72 | Cc1cc(N2CCN(C(=O)c3ccccc3)CC2)nc(N2CCCC2)n1 | –
